Experimental data taken from patent publication US20230002361A1, “2H-INDAZOLE DERIVATIVES AND THEIR USE IN THE TREATMENT OF DISEASE” (BIOGEN MA INC., priority 2019, published 2023).
Where a name gives a salt, the structure may show the parent alone.

Tests used:
MDR1 (P-gp) = target: T1, MDR1 (P-gp) (Homo sapiens, UniProt P08183); assay: MDR1-MDCK assay (efflux ratio); format: in vitro ADME; settings: human, MDCK-MDR1, 1 μM compound, 120 minutes incubation; read-out: MDR1-MDCK Efflux Ratio; (B-A/A-B)
T1 construct: host or cells: MDCK cells
T1 sequence (P08183 whole entry): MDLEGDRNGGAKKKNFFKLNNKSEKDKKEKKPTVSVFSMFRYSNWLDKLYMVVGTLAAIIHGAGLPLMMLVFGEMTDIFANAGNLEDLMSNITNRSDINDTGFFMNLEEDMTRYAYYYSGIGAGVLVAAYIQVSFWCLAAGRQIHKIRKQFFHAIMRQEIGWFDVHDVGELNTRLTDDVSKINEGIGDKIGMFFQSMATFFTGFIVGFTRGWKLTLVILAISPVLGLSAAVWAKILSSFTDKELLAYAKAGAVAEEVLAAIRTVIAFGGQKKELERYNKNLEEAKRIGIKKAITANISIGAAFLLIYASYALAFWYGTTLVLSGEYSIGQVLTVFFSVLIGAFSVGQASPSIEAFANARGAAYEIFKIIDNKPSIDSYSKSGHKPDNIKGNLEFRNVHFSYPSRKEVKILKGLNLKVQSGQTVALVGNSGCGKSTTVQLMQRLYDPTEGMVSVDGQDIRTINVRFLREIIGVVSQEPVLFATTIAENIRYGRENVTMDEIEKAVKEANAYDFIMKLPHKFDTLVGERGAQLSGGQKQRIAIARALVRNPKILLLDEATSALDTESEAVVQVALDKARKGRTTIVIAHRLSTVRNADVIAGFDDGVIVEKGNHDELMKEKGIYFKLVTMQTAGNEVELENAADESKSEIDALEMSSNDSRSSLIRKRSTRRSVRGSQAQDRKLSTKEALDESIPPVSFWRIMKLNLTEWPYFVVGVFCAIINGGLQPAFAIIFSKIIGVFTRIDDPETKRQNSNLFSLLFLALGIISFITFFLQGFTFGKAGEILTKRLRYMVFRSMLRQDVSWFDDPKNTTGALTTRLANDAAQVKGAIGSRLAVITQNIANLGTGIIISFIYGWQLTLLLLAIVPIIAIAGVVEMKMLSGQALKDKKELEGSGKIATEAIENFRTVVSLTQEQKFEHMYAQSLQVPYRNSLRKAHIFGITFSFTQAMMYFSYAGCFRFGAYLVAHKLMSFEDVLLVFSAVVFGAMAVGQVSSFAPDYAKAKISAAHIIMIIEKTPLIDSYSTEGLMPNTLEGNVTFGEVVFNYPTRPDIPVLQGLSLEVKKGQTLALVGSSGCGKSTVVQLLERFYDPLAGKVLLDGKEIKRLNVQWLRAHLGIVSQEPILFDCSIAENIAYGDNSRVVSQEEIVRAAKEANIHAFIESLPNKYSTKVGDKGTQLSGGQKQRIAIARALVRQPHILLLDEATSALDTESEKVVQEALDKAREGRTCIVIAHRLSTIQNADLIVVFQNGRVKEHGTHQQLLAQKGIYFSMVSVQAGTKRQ
Method: • The assay makes use of human MDR1 transfected MDCK cells (NIH cell line in-licensed from Absorption Systems) • The compounds are tested at 1 μM concentration prepared in transport buffer (Hank's balanced salt solution with HEPES) • MDR1-MDCK cell are cultured for 7 days in 96 well transwell insert plates (Corning). Insert plates are washed before the assay and TEER (Trans epithelial electric resistance) is measured. • These plates are loaded with test compound solution 85 μL for A-B transport and 260 μL for B-A transport in the respective donor compartment.
Mass balance=100×((Vr×Cr^final)+(Vd×Cd^final))/(Vd×CE) • Where: • dCr/dt is the cumulative concentration in the receiver compartment versus time in μM s^−1 • Vr is the volume of the receiver compartment in cm^3 • Vd is the volume of the donor compartment in cm^3 • A is the area of the insert (0.143 cm^2 for 96-well insert) • CE is the estimated experimental concentration (Time=0) of the dosing solution • Cr^final is the concentration of the receiver at the end of the incubation period • Cd^final is the concentration of the donor at the end of the incubation period.

IRAK4 = target: T2, IRAK4 (Homo sapiens, UniProt Q9NWZ3); assay: IRAK4 MSD Biochemical Assay (1 mM ATP, 2 h); settings: room temperature, read-out: IRAK4 MSD Biochemical Assay (1 mM ATP, 2 h) IC50
T2 construct: with 0.1 nM IRAK4, 1.6 μM of biotinylated peptide substrate and 10 μM ATP
T2 sequence (Q9NWZ3 1-460): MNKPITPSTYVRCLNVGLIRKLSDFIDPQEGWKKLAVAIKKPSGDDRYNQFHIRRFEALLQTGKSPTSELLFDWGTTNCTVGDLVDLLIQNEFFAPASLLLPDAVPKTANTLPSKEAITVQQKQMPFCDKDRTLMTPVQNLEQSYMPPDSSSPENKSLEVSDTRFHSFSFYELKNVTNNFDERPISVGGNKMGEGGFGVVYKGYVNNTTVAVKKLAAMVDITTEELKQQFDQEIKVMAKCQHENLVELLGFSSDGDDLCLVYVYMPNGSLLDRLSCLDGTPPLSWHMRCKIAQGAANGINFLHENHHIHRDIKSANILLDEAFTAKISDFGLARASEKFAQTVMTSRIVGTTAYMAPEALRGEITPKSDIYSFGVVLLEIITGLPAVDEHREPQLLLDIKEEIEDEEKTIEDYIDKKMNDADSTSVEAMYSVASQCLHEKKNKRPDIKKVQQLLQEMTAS
Method: The 2-hour 10 μM ATP Biochemical Assay employs a MesoScale Detection (MSD) format.
The activity is quenched with 11 μl of 70 mM EDTA, pH 8.
To detect the phosphorylated biotinylated peptide substrate, 30 μl of the quenched reaction mixture is added to equivalent wells of a 384 well streptavidin coated MesoScale plate (Meso Scale Discovery #L21SA-1). After a 1 hour incubation of the plate for 1 hour at room temperature with gentle mixing, the plate wells are washed 3 times with 50 mM Tris, pH 7.5, 150 mM NaCl, 0.02% Tween-20.
A 25 μl volume of 1:500 anti-P-Threonine Rabbit polyclonal Antibody plus 1:500 Goat-anti-Rabbit Sulfo Tag Antibody (Meso Scale Discovery R32AB-1) in 50 mM Tris, pH 7.5, 150 mM NaCl, 0.02% Tween-20 plus 2% BSA is then added to each well. After a 1-hour incubation of the plate for 1 hour at room temperature with gentle mixing, the plate wells are washed, 3 times with 50 mM Tris, pH 7.5, 150 mM NaCl, 0.02% Tween-20. A 40 μl volume of 2×MSD Read Buffer (Meso Scale Discovery R92TC-1) is added to each well, and the plate is read immediately in an MSD Plate Reader (Meso Scale Discovery).
The 2-hour 1 mM ATP IRAK4 Biochemical assay was performed as described above, but with […] IRAK4 and 1 mM ATP.

Row | SMILES | efflux ratio at 120 min, 1 μM (MDR1 (P-gp)) | IC50 (IRAK4) [nM]
1 | O=C(Nc1cccc(C(F)F)n1)c1cc2cn(CC3CCOC3)nc2cn1 (stereo not shown) [Example 8, N-(6-(difluoromethyl)pyridin-2-yl)-2-((tetrahydrofuran-3-yl)methyl)-2H-pyrazolo[3,4-c]pyridine-5-carboxamide Trifluoroacetate] | 0.6 | 275
2 | COc1cccc(NC(=O)c2cc(C)c3nn(CC4CCOC4)cc3c2)n1.O=C(O)C(F)(F)F (stereo not shown) [Example 9, N-(6-methoxypyridin-2-yl)-7-methyl-2-((tetrahydrofuran-3-yl)methyl)-2H-indazole-5-carboxamide Trifluoroacetate] | 0.5 | 2740
3 | CC(C)Oc1cc2nn(CCC(C)(C)O)cc2cc1C(=O)Nc1cccc(C(F)F)n1 [Example 13, N-(6-(difluoromethyl)pyridin-2-yl)-2-(3-hydroxy-3-methylbutyl)-6-isopropoxy-2H-indazole-5-carboxamide] | 1.7 | 0.4
4 | COc1cccc(NC(=O)c2cc(OC)c3nn(CCC(C)(C)O)cc3c2)n1.Cl [Example 14, 2-(3-Hydroxy-3-methylbutyl)-7-methoxy-N-(6-methoxypyridin-2-yl)-2H-indazole-5-carboxamide hydrochloride] | 24.4 | 247
5 | COc1cccc(NC(=O)c2cc(OC)c3nn(CCC(C)(C)OC)cc3c2)n1.Cl [Example 15, 7-Methoxy-2-(3-methoxy-3-methylbutyl)-N-(6-methoxypyridin-2-yl)-2H-indazole-5-carboxamide hydrochloride] | 2.5 | 124
6 | COc1cccc(NC(=O)c2cc(OC)c3nn(C4CCOCC4)cc3c2)n1.Cl [Example 16, 7-Methoxy-N-(6-methoxypyridin-2-yl)-2-(tetrahydro-2H-pyran-4-yl)-2H-indazole-5-carboxamide hydrochloride] | 3 | 211
7 | COCCCn1cc2cc(C(=O)Nc3cccc(C(F)F)n3)c(OC)cc2n1.Cl [Example 17, N-(6-(difluoromethyl)pyridin-2-yl)-6-methoxy-2-(3-methoxypropyl)-2H-indazole-5-carboxamide hydrochloride] | 0.4 | 11.3
8 | COc1cc2nn(C3CCOCC3)cc2cc1C(=O)Nc1cccc(C(F)F)n1.Cl [Example 24, N-(6-(difluoromethyl)pyridin-2-yl)-6-methoxy-2-(tetrahydro-2H-pyran-4-yl)-2H-indazole-5-carboxamide Hydrochloride] | 0.7 | 6.3
9 | CC(C)Oc1cc2nn(C3CCOCC3)cc2cc1C(=O)Nc1cccc(C(F)F)n1.Cl [Example 25, N-(6-(difluoromethyl)pyridin-2-yl)-6-isopropoxy-2-(tetrahydro-2H-pyran-4-yl)-2H-indazole-5-carboxamide hydrochloride] | 0.6 | 0.3
10 | COCCCn1cc2cc(C(=O)Nc3cccc(C(F)F)n3)c(OC(C)C)cc2n1.Cl [Example 26, N-(6-(difluoromethyl)pyridin-2-yl)-6-isopropoxy-2-(3-methoxypropyl)-2H-indazole-5-carboxamide hydrochloride] | 0.7 | 0.9
11 | CC(C)Oc1cc2nn(CC34COC(C)(C3)C4)cc2cc1C(=O)Nc1cccc(C(F)F)n1.Cl [Example 27, N-(6-(difluoromethyl)pyridin-2-yl)-6-isopropoxy-2-((1-methyl-2-oxabicyclo[2.1.1]hexan-4-yl)methyl)-2H-indazole-5-carboxamide hydrochloride] | 1.3 | 5.4
12 | COCCn1cc2cc(C(=O)Nc3cccc(C(F)F)n3)c(OC(C)C)cc2n1.Cl [Example 28, N-(6-(difluoromethyl)pyridin-2-yl)-6-isopropoxy-2-(2-methoxyethyl)-2H-indazole-5-carboxamide hydrochloride] | 0.4 | 4.4
13 | COC(C)(C)CCn1cc2cc(C(=O)Nc3cccc(C(F)F)n3)c(OC(C)C)cc2n1.Cl [Example 29, N-(6-(difluoromethyl)pyridin-2-yl)-6-isopropoxy-2-(3-methoxy-3-methylbutyl)-2H-indazole-5-carboxamide hydrochloride] | 0.8 | 0.6
14 | CC(C)Oc1cc2nn(C3COC3)cc2cc1C(=O)Nc1cccc(C(F)F)n1 [Example 30, N-(6-(difluoromethyl)pyridin-2-yl)-6-isopropoxy-2-(oxetan-3-yl)-2H-indazole-5-carboxamide] | 0.6 | 6.2
15 | CCOc1cc2nn(CCC(C)(C)O)cc2cc1C(=O)Nc1cccc(C(F)F)n1 [Example 31, N-(6-(difluoromethyl)pyridin-2-yl)-6-ethoxy-2-(3-hydroxy-3-methylbutyl)-2H-indazole-5-carboxamide] | 1.9 | 0.7
16 | CC(C)Oc1nc2nn(CCC(C)(C)O)cc2cc1C(=O)Nc1cccc(C(F)F)n1 [Example 32, N-(6-(difluoromethyl)pyridin-2-yl)-2-(3-hydroxy-3-methylbutyl)-6-isopropoxy-2H-pyrazolo[3,4-b]pyridine-5-carboxamide] | 3.4 | 0.4
17 | CC(C)Oc1cc2nn(CCC(C)(C)O)cc2cc1C(=O)Nc1ccn(C(F)F)n1 [Example 33, N-(1-(difluoromethyl)-1H-pyrazol-3-yl)-2-(3-hydroxy-3-methylbutyl)-6-isopropoxy-2H-indazole-5-carboxamide] | 8.6 | 4.3
18 | CC(C)Oc1cc2nn(CCC(C)(C)O)cc2cc1C(=O)Nc1cnn2cccnc12 [Example 34, 2-(3-Hydroxy-3-methylbutyl)-6-isopropoxy-N-(pyrazolo[1,5-a]pyrimidin-3-yl)-2H-indazole-5-carboxamide] | 14.2 | 1
19 | COCCCn1cc2cc(C(=O)Nc3cnn4cccnc34)c(OC(C)C)cc2n1 [Example 35, 6-Isopropoxy-2-(3-methoxypropyl)-N-(pyrazolo[1,5-a]pyrimidin-3-yl)-2H-indazole-5-carboxamide] | 1.1 | 5
20 | CC(C)Oc1nc2nn(C3CCCOC3)cc2cc1C(=O)Nc1cnn2cccnc12 (stereo not shown) [Example 36, 6-Isopropoxy-N-(pyrazolo[1,5-a]pyrimidin-3-yl)-2-(tetrahydro-2H-pyran-3-yl)-2H-pyrazolo[3,4-b]pyridine-5-carboxamide] | 2.2 | 0.5
21 | CC(C)Oc1nc2nn(C3CCOC3)cc2cc1C(=O)Nc1cnn2cccnc12 (stereo not shown) [Example 37, 6-Isopropoxy-N-(pyrazolo[1,5-a]pyrimidin-3-yl)-2-(tetrahydrofuran-3-yl)-2H-pyrazolo[3,4-b]pyridine-5-carboxamide] | 2.2 | 6.4
22 | CC(C)Oc1cc2nn(C3COC3)cc2cc1C(=O)Nc1cnn2cccnc12 [Example 38, 6-Isopropoxy-2-(oxetan-3-yl)-N-(pyrazolo[1,5-a]pyrimidin-3-yl)-2H-indazole-5-carboxamide] | 2.3 | 11.2
23 | CC(C)Oc1cc2nn(CC3CCOC3)cc2cc1C(=O)Nc1cnn2cccnc12 (stereo not shown) [Example 39, 6-Isopropoxy-N-(pyrazolo[1,5-a]pyrimidin-3-yl)-2-((tetrahydrofuran-3-yl)methyl)-2H-indazole-5-carboxamide] | 3.1 | 1.8
